Assay results from patent US11629156B2, “7-phenylethylamino-4H-pyrimido[4,5-d][1,3]oxazin-2-one compounds as mutant IDH1 and IDH2 inhibitors” (Eli Lilly and Company, priority 2016, dated 2023).

What follows are compounds tested on wild-type IDH1 (αKG) in HT1080 cells (assay: HT1080 cell assay, intracellular αKG). Settings: highest concentration tested shown if curve did not reach 50%.
Type: cell-based

Q: Which IC50 does the source give for `C=CC(=O)N1CCN(C(CCOC)c2ccc([C@H](C)Nc3ncc4c(n3)N(CC)C(=O)OC4)cc2)CC1` (single isomer, unassigned) [Example 13] here?
A: > 20 µM

Q: How did the IC50 turn out when `C=CC(=O)N1CCN(C(CC(C)C)c2ccc([C@H](C)Nc3ncc4c(n3)N(CC)C(=O)OC4)cc2)CC1` (single isomer, unassigned) [Example 7] was run?
A: > 0.2 µM

Q: How did the IC50 turn out when `C=CC(=O)N1CCN(C(CC)c2ccc([C@H](C)Nc3ncc4c(n3)N(CC)C(=O)OC4)cc2)CC1` (single isomer, unassigned) [Example 11] was run?
A: > 20 µM

Q: `C=CC(=O)N1CCN(C(CC(C)C)c2ccc([C@H](C)Nc3ncc4c(n3)N(CC)C(=O)OC4)cc2)CC1` (single isomer, unassigned) [Example 8] was tested. Which IC50 did it give?
A: > 0.2 µM

Q: How did the IC50 turn out when `C=CC(=O)N1CCN(C(CC2CC2)c2ccc([C@H](C)Nc3ncc4c(n3)N(C)C(=O)OC4)cc2)CC1` (single isomer, unassigned) [Example 4] was run?
A: > 0.2 µM

Q: With `C=CC(=O)N1CCN(C(CC2CC2)c2ccc([C@H](C)Nc3cc4c(cn3)COC(=O)N4C)cc2)CC1` (single isomer, unassigned) [Example 9] as the compound, how does the IC50 read?
A: > 20 µM

Q: How did the IC50 turn out when `C=CC(=O)N1CCN(C(CC2CC2)c2ccc([C@H](C)Nc3ncc4c(n3)N(C)C(=O)OC4)cc2)CC1` (single isomer, unassigned) [Example 3] was run?
A: > 0.2 µM

Q: How did the IC50 turn out when `C=CC(=O)N1CCN(C(CCOC)c2ccc([C@H](C)Nc3ncc4c(n3)N(CC)C(=O)OC4)cc2)CC1` (single isomer, unassigned) [Example 14] was run?
A: > 20 µM

Q: With `C=CC(=O)N1CCN(C(CC)c2ccc([C@H](C)Nc3ncc4c(n3)N(CC)C(=O)OC4)cc2)CC1` (single isomer, unassigned) [Example 12] as the compound, how does the IC50 read?
A: > 20 µM

Q: `C=CC(=O)N1CCN(C(CC2CC2)c2ccc([C@H](C)Nc3cc4c(cn3)COC(=O)N4C)cc2)CC1` (single isomer, unassigned) [Example 10] was tested. Which IC50 did it give?
A: > 20 µM
